From patent publication US5519055A, “Substituted kynurenines and process for their preparation” (University of Maryland at Baltimore, priority 1993, dated 1996)
Blank lines part the entries; values can stand above or below the molecule they belong to.

Assays:
[1] = target: T1, KAT (partially purified enzyme preparation) (Rattus norvegicus, UniProt Q08415); assay: Kinetic analysis of KAT inhibitors using a partially purified enzyme preparation; type: biochemical; conditions: KYN varied 2 μM to 2 mM, 1 mM pyruvate, pH 8.0, 2 h at 37° C., double reciprocal plots
T1 construct: a preparation of partially purified enzyme in a total volume of 0.1 ml; from tissue
T1 sequence (Q08415 1-423): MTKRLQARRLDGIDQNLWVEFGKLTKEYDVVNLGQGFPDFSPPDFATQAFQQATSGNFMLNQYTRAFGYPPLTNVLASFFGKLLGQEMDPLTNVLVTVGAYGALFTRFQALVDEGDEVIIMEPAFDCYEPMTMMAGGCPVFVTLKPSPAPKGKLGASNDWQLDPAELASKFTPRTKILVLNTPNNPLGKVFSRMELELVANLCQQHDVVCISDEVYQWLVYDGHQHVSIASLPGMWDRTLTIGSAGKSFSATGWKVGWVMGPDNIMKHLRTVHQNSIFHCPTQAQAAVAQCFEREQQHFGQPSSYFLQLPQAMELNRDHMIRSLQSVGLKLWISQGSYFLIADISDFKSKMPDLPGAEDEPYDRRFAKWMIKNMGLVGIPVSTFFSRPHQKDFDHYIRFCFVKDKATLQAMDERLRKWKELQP
Procedure: C) Kinetic analysis of KAT inhibitors using a partially purified enzyme preparation (Brain Research, 534, 37-44 (9)
The reaction mixture contained [^3 H]KYN (30 nCi), diluted with unlabelled KYN to yield a final concentration of 2 μM, 1 mM pyruvate, 70 μM pyridoxal 5'-phosphate, 150 mM Tris-acetate buffer, pH 8.0, and a preparation of partially purified enzyme in a total volume of 0.1 ml. Test compounds were included in the incubation mixture as needed. The reaction was started by the addition of pyruvate. After incubation for 2 h at 37° C., the reaction was terminated by the addition of 14 μl of 50% (w/w) trichloroacetic acid. Subsequently, 1 ml of 0.1M HCl was added and denaturated protein was removed by a 4-min centrifugation in a Beckman 52 B microfuge. 1 ml of the resulting supernatant was applied to a Dowex 50 W column (0.5×1.0 cm; H^+ form) and washed with 1 ml of 0.1M HCl, followed by 1 ml of distilled water. [^3 H]KYNA was eluted with 2 ml of distilled water and quantitated by liquid scintillation spectrometry. Enzyme measurements were performed in triplicate samples. Blanks were obtained by using an enzyme preparation which had been heat-deactivated for 10 min in a boiling water bath. […] Double reciprocal plots were constructed and lines of best fit were determined by linear regression analysis.

[2] = target: Kynurenine Aminotransferase (KAT); assay: Determination of KAT activity inhibition in rat brain homogenate; type: biochemical; conditions: 2 μM [3H]KYN, 2 h at 37° C., pH 8.0, read-out: ID50 (inhibition of KAT enzyme activity)
Excerpt: (§1) Compounds which act as KAT inhibitors may be identified using standard test, for example, measuring their ability to inhibit KAT activity in rat brain homogenate as described, for example, in J. Neurochem., 57, 533-540 (1991) or their inhibitory effect on Kynurenic Acid (KYNA) production by rat brain slices as described, for example, in J. Neurochem., 52, 1629-1636 (1989). KAT catalyzes the biosynthesis of KYNA from Kynurenine (KYN): [drawing 2] and it is singularly responsible for the regulation of extracellular KYNA concentrations in the brain (J. Neurochem., 57, 533-540, 1991).
A) Determination of KAT activity inhibition in rat brain homogenate
KAT was measured as described in detail by Okuno et al. (Measurement of rat brain kynurenine aminotransferase at physiological kynurenine concentrations, J. Neurochem., 57, 533-540, 1991).
Briefly, animals were killed by decapitation and the brain tissue was homogenized (1:5 v/w in 5 mM Trisacetate buffer, pH 8.0, containing 10 mM 2-mercaptoethanol and 50 μM pyridoxal 5'-phosphate) and incubated for 2 h at 37° C. in the presence of 2 μM [^3 H]KYN (30 nCi), 1 mM 2-oxoglutarate and 70 μM pyridoxal 5'-phosphate in 150 mM Tris-acetate buffer, pH 8.0. […]
Newly synthesized [^3 H]KYNA was separated from [^3 H]KYN on a Dowex 50 W cation-exchange column and quantitated by liquid scintillation spectrometry. […]

[3] = test system: KYNA production by rat tissue slices; assay: Determination of inhibition of KYNA production by rat tissue slices (cerebral cortex); type: cell-based; conditions: 50 μM L-KYN, 2 h at 37° C., pH 7.4
Excerpt: as §1
B) Determination of inhibition of KYNA production by rat tissue slices
Routinely, slices (base 1×1 mm; weight ≈1.5 mg/slice) from the cerebral cortex were separated on ice and transferred to culture wells (10 slices/well) containing 1 ml of oxygenated Krebs-Ringer buffer (NaCl, 118.5 mM; KCl, 4.75 mM; CaCl 2, 1.77 mM; MgSO4, 1.18 mM; NaH2 PO4, 12.9 mM; NaH2 PO4, 3 mM; glucose, 5mM; pH 7.4). Subsequently, the tissue was preincubated for 10 min at 37° C. and incubated further for 2 h at 37° C., in the presence of 50 μM L-KYN in an oxygenated chamber, on a shaking water bath. Compounds of the present invention were included in the incubation mixture as needed. Following incubation, the culture wells were immediately placed on ice, and the slices were rapidly separated from the incubation medium.
For KYNA determination, 1 ml samples of the incubation medium were immersed in a boiling water bath for 10 min, and the precipitated proteins were removed by centrifugation (8,730× g, 10 min). The supernatants were diluted (1:1, v/v) with 0.2M HCl and applied to Dowex 50 W (hydrogen form, Sigma) cation-exchange columns (0.5×2 cm). Subsequently, the columns were washed with 1 ml of 0.1M HCl and 1 ml of water, and the fraction containing KYNA was eluted with 2 ml of water. The eluates were applied to a 3-μm C18 HPLC column (100×3.2 internal diameter, Bioanalytical Systems, West Lafayette, Ind., U.S.A.), and KYNA was isocratically eluted with a mobile phase containing 50 mM ammonium acetate and 5% methanol at a flow rate of 0.5 ml/min. Under these conditions, the retention time of KYNA was ≈7 min.
Data were recorded and calculated with a Hewlett-Packard 3390A integrator connected to a model 160 UV absorbance detector (Beckman Instruments, Berkeley, Calif., U.S.A.) set at 340 nm.
In this assay, (D,L)-2-amino-4-(2-amino-5-chlorophenyl)-4-oxo butyric acid, also known as D,L-5-chloro-kynurenine, was tested with the following results: […]

[4] = test system: excitatory amino acid (EAA) receptor; conditions: J. Neurochem., 52, 1319-1328, 1989; cited from earlier work
[5] = test system: glycine modulatory site of the N-methyl-D-aspartate (NMDA) receptor complex; conditions: J. Neurochem., 52, 1319-1328, 1989; cited from earlier work
[6] = substrate: Nc1ccccc1C(=O)C[C@H](N)C(=O)O; assay: purified protein, by the assay type; conditions: other: substrate KYN varied 2 μM to 2 mM, 1 mM pyruvate, pH 8.0, 2 h at 37° C., double reciprocal plots

Ki [1]: 88 µM | IC50 [2]: 78 µM
Molecule: Nc1ccc(Cl)cc1C(=O)CC(N)C(=O)O (racemic) [Example 3, 2-amino-4-(2-amino-5-chlorophenyl)-4-oxo-butyric acid]
inhibition at 25 µM ([3]; 25 μM compound): 33% | inhibition at 50 µM ([3]; 50 μM compound): 39% | inhibition at 100 µM ([3]; 100 μM compound): 56% | inhibition at 250 µM ([3]; 250 μM compound): 66%

Molecule: O=C(O)c1cc(=O)c2ccccc2[nH]1 [KYNA, Kynurenic Acid]
excitatory amino acid (EAA) receptor antagonism [4]: effective excitatory amino acid (EAA) receptor antagonist | affinity to the glycine modulatory site of the NMDA receptor complex [5]: particularly high affinity

B1: KAT (partially purified enzyme preparation) (Rattus norvegicus) (protein)
chain: MTKRLQARRLDGIDQNLWVEFGKLTKEYDVVNLGQGFPDFSPPDFATQAFQQATSGNFMLNQYTRAFGYPPLTNVLASFFGKLLGQEMDPLTNVLVTVGAYGALFTRFQALVDEGDEVIIMEPAFDCYEPMTMMAGGCPVFVTLKPSPAPKGKLGASNDWQLDPAELASKFTPRTKILVLNTPNNPLGKVFSRMELELVANLCQQHDVVCISDEVYQWLVYDGHQHVSIASLPGMWDRTLTIGSAGKSFSATGWKVGWVMGPDNIMKHLRTVHQNSIFHCPTQAQAAVAQCFEREQQHFGQPSSYFLQLPQAMELNRDHMIRSLQSVGLKLWISQGSYFLIADISDFKSKMPDLPGAEDEPYDRRFAKWMIKNMGLVGIPVSTFFSRPHQKDFDHYIRFCFVKDKATLQAMDERLRKWKELQP
Km [6]: 369 µM
